These are literature values, as cited in patent publication US11911514B2, “Extended-release pharmaceutical composition containing lacosamide” (WHAN IN Pharmaceutical Company, priority 2018, dated 2024).

Structures are written as SMILES.

This series relates to patients with epilepsy. As to conditions: taking 400 mg.

For the compound `COC[C@@H](NC(C)=O)C(=O)NCc1ccccc1` [lacosamide], the “Number of patients with seizures reduced by more than 50%” value is given as 38-49%.
